The subject of series [1] is Tick-borne encephalitis virus. As to the kind of experiment: Antiviral activity against Tick-borne encephalitis virus Absettarov infected in PEK cells assessed as inhibition of viral plaque formation after 1 hr by gentian violet staining assay. The format is functional, cell-based.
Series [2] concerns Omsk hemorrhagic fever virus. In words: Antiviral activity against Omsk hemorrhagic fever virus Nikitina infected in PEK cells assessed as inhibition of viral plaque formation after 1 hr by gentian violet staining assay. Type of series: functional, cell-based.
The nature of series [3]: Acute cytotoxicity against PEK cells after 24 hrs by neutral red staining assay. The format is cell-based, Sus scrofa. To be noted: pig.
A short description of series [4]: Chronic cytotoxicity against PEK cells after 7 days by neutral red staining assay. Type of series: cell-based, Sus scrofa. To be noted: pig.
In another series the test system is Powassan virus. As to the kind of experiment: Antiviral activity against Powassan virus 24 infected in PEK cells assessed as inhibition of viral plaque formation after 1 hr by gentian violet staining assay. The format is functional, cell-based. Conditions: for IC50: Powassan virus, 24, PEK.

Broadly, the IC50 is the point on the concentration scale where inhibition reaches its midpoint. As usually defined, the CC50 is the concentration giving 50% cytotoxicity. Regarding `CCCCc1ccc(NC(=O)CSC2=C(C#N)C(c3ccco3)C(C(=O)Nc3ccc(OCC)cc3)=C(C)N2)cc1` (racemic), the 50% inhibitory concentration (IC50) in series [1] is 2.5 µM; in series [2], over 10 µM; with Powassan virus, over 10 µM. Also, the inhibition entry (in series [1]; in series [2]; in the series with Powassan virus) was “Dose-dependent effect” in each case. The molecule further yielded a CC50 at 24 h in series [3] of 64 µM. In series [4], this molecule had a CC50 at 168 h of 14 µM.
For `CCc1ccc(NC(=O)CSC2=C(C#N)C(c3ccco3)C(C(=O)Nc3ccc(S(N)(=O)=O)cc3)=C(C)N2)cc1` (racemic), the IC50 in series [1] is over 10 µM; in series [2], 10 µM; in the series with Powassan virus, over 10 µM. For the same molecule, the inhibition entry (in series [1]; in series [2]; in the series with Powassan virus) was “Dose-dependent effect” throughout. This molecule also registered a CC50 at 24 h in series [3] of over 250 µM. For the same molecule, in series [4], half-maximal cytotoxicity (CC50 at 168 h) was put at 153 µM.
